Source: PubChem BioAssay AID2060902 (Molecular Pharmacology Branch, DTP, NCI, 2025)

Test system: 485368-065-R3-J5-PDC spheroids with HUVEC/MSC, viability
Experiment: Anticancer human tumor 485368-065-R3-J5-PDC patient-derived pancreatic carcinoma cell line growth inhibition [RAS]
Conditions: for IC50: curve of first compound; for viability, T/C: stronger effect = lower value
Summary of the method: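 Tumour cells grown as complex spheroids with HUVEC endothelial cells and mesenchymal stem cells, treated with RAS pathway inhibitor combinations. Each agent spans half-log steps from near clinical Cmax, or 10 microM where Cmax is unknown.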
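Note: spheroids exposed to agents for seven days before readout.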

CC(Nc1ccc2c(c1)OCCn1cc(N3C(=O)OCC3C(F)F)nc1-2)C(N)=O (centres undefined) + C=CC(=O)N1CCN(c2nc(OCC3CCCN3C)nc3c(F)c(-c4nc(N)cc(C)c4C(F)(F)F)c(Cl)cc23)C(C)C1
IC50 (second compound 0.00316 µM): > 10 µM | IC50 (second compound 0.01 µM): > 10 µM | IC50 (second compound 0.0316 µM): > 10 µM | IC50 (second compound 0.1 µM): 9.8 µM | IC50 (second compound 0.316 µM): > 10 µM | IC50 (second compound 1 µM): 4.99 µM | viability, T/C (second compound 0.00316 µM, first compound 0.0316 µM): 103% | viability, T/C (second compound 0.00316 µM, first compound 0.1 µM): 79.8% | viability, T/C (second compound 0.00316 µM, first compound 0.316 µM): 88.5% | viability, T/C (second compound 0.00316 µM, first compound 1 µM): 75.4% | viability, T/C (second compound 0.00316 µM, first compound 3.16 µM): 75.6% | viability, T/C (second compound 0.00316 µM, first compound 10 µM): 51.3% | viability, T/C (second compound 0.01 µM, first compound 0.0316 µM): 92.4% | viability, T/C (second compound 0.01 µM, first compound 0.1 µM): 86.9% | viability, T/C (second compound 0.01 µM, first compound 0.316 µM): 91.8% | viability, T/C (second compound 0.01 µM, first compound 1 µM): 72.8% | viability, T/C (second compound 0.01 µM, first compound 3.16 µM): 76.5% | viability, T/C (second compound 0.01 µM, first compound 10 µM): 49.5% | viability, T/C (second compound 0.0316 µM, first compound 0.0316 µM): 87.1% | viability, T/C (second compound 0.0316 µM, first compound 0.1 µM): 72.3% | viability, T/C (second compound 0.0316 µM, first compound 0.316 µM): 88% | viability, T/C (second compound 0.0316 µM, first compound 1 µM): 85.7% | viability, T/C (second compound 0.0316 µM, first compound 3.16 µM): 76.4% | viability, T/C (second compound 0.0316 µM, first compound 10 µM): 52.1% | viability, T/C (second compound 0.1 µM, first compound 0.0316 µM): 100% | viability, T/C (second compound 0.1 µM, first compound 0.1 µM): 97.6% | viability, T/C (second compound 0.1 µM, first compound 0.316 µM): 102% | viability, T/C (second compound 0.1 µM, first compound 1 µM): 82% | viability, T/C (second compound 0.1 µM, first compound 3.16 µM): 73.8% | viability, T/C (second compound 0.1 µM, first compound 10 µM): 49.3% | viability, T/C (second compound 0.316 µM, first compound 0.0316 µM): 98.5% | viability, T/C (second compound 0.316 µM, first compound 0.1 µM): 87.1% | viability, T/C (second compound 0.316 µM, first compound 0.316 µM): 78.4% | viability, T/C (second compound 0.316 µM, first compound 1 µM): 70.5% | viability, T/C (second compound 0.316 µM, first compound 3.16 µM): 82.8% | viability, T/C (second compound 0.316 µM, first compound 10 µM): 57.1% | viability, T/C (second compound 1 µM, first compound 0.0316 µM): 101% | viability, T/C (second compound 1 µM, first compound 0.1 µM): 90.5% | viability, T/C (second compound 1 µM, first compound 0.316 µM): 87.5% | viability, T/C (second compound 1 µM, first compound 1 µM): 84.7% | viability, T/C (second compound 1 µM, first compound 3.16 µM): 55% | viability, T/C (second compound 1 µM, first compound 10 µM): 41.3%

Cc1nc(N2CCC3(CC2)COC(C)C3N)c(CO)nc1Sc1ccnc(N)c1Cl (centres undefined) + CCn1c(-c2cc(N3CCN(C)CC3)cnc2C(C)OC)c2c3cc(ccc31)-c1csc(n1)CC(NC(=O)C1CC1C)C(=O)N1CCCC(N1)C(=O)OCC(C)(C)C2
IC50 (second compound 0.000949 µM): < 0.0316 µM | IC50 (second compound 0.003 µM): < 0.0316 µM | IC50 (second compound 0.00949 µM): < 0.0316 µM | IC50 (second compound 0.03 µM): < 0.0316 µM | IC50 (second compound 0.0949 µM): < 0.0316 µM | IC50 (second compound 0.3 µM): < 0.0316 µM | viability, T/C (second compound 0.000949 µM, first compound 0.0316 µM): 26.1% | viability, T/C (second compound 0.000949 µM, first compound 0.1 µM): 18.6% | viability, T/C (second compound 0.000949 µM, first compound 0.316 µM): 17.5% | viability, T/C (second compound 0.000949 µM, first compound 1 µM): 15% | viability, T/C (second compound 0.000949 µM, first compound 3.16 µM): 11.8% | viability, T/C (second compound 0.000949 µM, first compound 10 µM): 8.82% | viability, T/C (second compound 0.003 µM, first compound 0.0316 µM): 18.4% | viability, T/C (second compound 0.003 µM, first compound 0.1 µM): 15.9% | viability, T/C (second compound 0.003 µM, first compound 0.316 µM): 12.8% | viability, T/C (second compound 0.003 µM, first compound 1 µM): 10.7% | viability, T/C (second compound 0.003 µM, first compound 3.16 µM): 7.85% | viability, T/C (second compound 0.003 µM, first compound 10 µM): 4.73% | viability, T/C (second compound 0.00949 µM, first compound 0.0316 µM): 13.4% | viability, T/C (second compound 0.00949 µM, first compound 0.1 µM): 12% | viability, T/C (second compound 0.00949 µM, first compound 0.316 µM): 9.63% | viability, T/C (second compound 0.00949 µM, first compound 1 µM): 9.5% | viability, T/C (second compound 0.00949 µM, first compound 3.16 µM): 4.66% | viability, T/C (second compound 0.00949 µM, first compound 10 µM): 2.44% | viability, T/C (second compound 0.03 µM, first compound 0.0316 µM): 10.6% | viability, T/C (second compound 0.03 µM, first compound 0.1 µM): 10.2% | viability, T/C (second compound 0.03 µM, first compound 0.316 µM): 8.7% | viability, T/C (second compound 0.03 µM, first compound 1 µM): 5.25% | viability, T/C (second compound 0.03 µM, first compound 3.16 µM): 2.49% | viability, T/C (second compound 0.03 µM, first compound 10 µM): 1.01% | viability, T/C (second compound 0.0949 µM, first compound 0.0316 µM): 8.37% | viability, T/C (second compound 0.0949 µM, first compound 0.1 µM): 8.31% | viability, T/C (second compound 0.0949 µM, first compound 0.316 µM): 6.58% | viability, T/C (second compound 0.0949 µM, first compound 1 µM): 3.11% | viability, T/C (second compound 0.0949 µM, first compound 3.16 µM): 1.36% | viability, T/C (second compound 0.0949 µM, first compound 10 µM): 0.74% | viability, T/C (second compound 0.3 µM, first compound 0.0316 µM): 7.17% | viability, T/C (second compound 0.3 µM, first compound 0.1 µM): 6.81% | viability, T/C (second compound 0.3 µM, first compound 0.316 µM): 5.18% | viability, T/C (second compound 0.3 µM, first compound 1 µM): 2.89% | viability, T/C (second compound 0.3 µM, first compound 3.16 µM): 1.79% | viability, T/C (second compound 0.3 µM, first compound 10 µM): 0.68%
